Assay results from patent publication US10175228B2, “Method of using transmembrane channel-like protein 6 (TMC6) protein to identify substances affecting salty taste” (priority 2016, dated 2019).

How the values were obtained:
Type in all cases: cell-based
[1] = tested on: chimeric TMC6 protein of mouse and Aotus nancymaae; test: Calcium imaging of CHO-K1 cells expressing the mouse/Aotus nancymaae chimeric TMC6 gene; details: stimulation with high-concentration NaCl solution for 60 sec, 21 cells
Description: The nucleotide sequence of the CDS of the chimeric TMC6 gene cloned into Mouse-Aotus nancymaae chimera TMC6 2A-YC260TM in pcDNA3.1(−) was confirmed to consist of an upstream part identical to positions 1 to 45 of the nucleotide sequence of mRNA of the mouse TMC6 gene (NM_145439) and a downstream part identical to positions 52 to 2421 of the nucleotide sequence of mRNA of the Aotus nancymaae TMC6 gene (XM 012453598) registered in NCBI by sequencing analysis. The chimeric TMC6 gene encodes a chimeric TMC6 protein consisting of the amino acid sequence of positions 1 to 15 of the mouse TMC6 protein (SEQ ID NO: 26) and the amino acid sequence of positions 18 to 807 of the Aotus nancymaae TMC6 protein (SEQ ID NO: 1). The nucleotide sequence of Mouse-Aotus nancymaae chimera TMC6 2A-YC260TM in pcDNA3.1(−) is shown as SEQ ID NO: 63. […]
CHO-K1 cells were transfected with Macaca mulatta TMC6-2A-YC260TM in pcDNA3.1(−), Pongo abelii TMC6-2A-YC260TM in pcDNA3.1(−), Mouse-Aotus nancymaae chimera TMC6 2A-YC260TM in pcDNA3.1(−), or YC2.60-pcDNA, to prepare TMC6-expressing cells (cells expressing the Macaca mulatta TMC6 gene, the Pongo abelii TMC6 gene, or the mouse/Aotus nancymaae chimeric TMC6 gene, in combination with the YC2.60 gene) and control cells (cells expressing the YC2.60 gene). The prepared cells were stimulated, and activation of the cells was measured. […]

[2] = tested on: Pongo abelii TMC6 protein; test: Calcium imaging of CHO-K1 cells expressing the Pongo abelii TMC6 gene; details: stimulation with high-concentration NaCl solution for 60 sec, 31 cells
Description: (§1) CHO-K1 cells were transfected with Macaca mulatta TMC6-2A-YC260TM in pcDNA3.1(−), Pongo abelii TMC6-2A-YC260TM in pcDNA3.1(−), Mouse-Aotus nancymaae chimera TMC6 2A-YC260TM in pcDNA3.1(−), or YC2.60-pcDNA, to prepare TMC6-expressing cells (cells expressing the Macaca mulatta TMC6 gene, the Pongo abelii TMC6 gene, or the mouse/Aotus nancymaae chimeric TMC6 gene, in combination with the YC2.60 gene) and control cells (cells expressing the YC2.60 gene). The prepared cells were stimulated, and activation of the cells was measured. The procedure was as follows.
(§2) First, a plurality of sterile cover glasses (18×32 mm, Matsunami Glass) were placed at the bottom of a culture dish having a diameter of 100 mm so as not to be overlapped to each other. CHO-K1 cells (ATCC) were inoculated thereto while adjusting the number of the cells to obtain 60% confluence, and cultured for 24 hr. Then, medium exchange was carried out. As the medium, 12 mL of Ham's F-12K (Kaighn's) (Life Technologies) containing 10% fetal bovine serum (Life Technologies) was used. […]
(§3) Change of the intracellular calcium concentration was measured and analyzed with analysis software equipped with FV1200. An average YFP/CFP value of all the cell of which the YFP/CFP value was changed by stimulation with the ATP stimulation solution was calculated at each measurement. […]

[3] = tested on: Macaca mulatta TMC6 protein; test: Calcium imaging of CHO-K1 cells expressing the Macaca mulatta TMC6 gene; details: stimulation with high-concentration NaCl solution for 60 sec, 28 cells
Description: as §1, §2, §3

Measured: change of average YFP/CFP value (intracellular calcium concentration)

[Cl-].[Na+] [NaCl, sodium chloride]
increase: all assays above
